The numbers were not newly measured in patent US20030230530A1, “Process for the preparation of a combination of Famotidine Polymorphs A and B” (M/S. TONIRA PHARMA LIMITED, priority 2002, published 2003), which cites them from elsewhere.

For series [1] the following is noted: background statement, comparison of Polymorph A and B.
For series [2] the following is noted: background statement, comparison of Polymorph A and B. This is another data set of the same source.

As to `N=C(N)Nc1nc(CSCCC(=N)NS(N)(=O)=O)cs1` [Polymorph A, N-Sulfamyl-3-(2-guanidinothiazole-4-yl-methylthio) proionamidine], the dissolution properties entry in series [1] is reported as “low dissolution properties”. Besides, the “stability of the polymorph” value in series [2] is listed as “more stable”.

Regarding `N=C(N)Nc1nc(CSCCC(=N)NS(N)(=O)=O)cs1` [Polymorph B, N-Sulfamyl-3-(2-guanidinothiazole-4-yl-methylthio) proionamidine], in series [1], the dissolution properties entry is given as “higher dissolution properties”. In addition, in series [2], the “stability of the polymorph” value is recorded as “metastable”.
